Test results taken from the supplement of paper PMC11451515.

Legend:
Details in all cases: 48 h
NOMO1 [1] = assay: cell viability relative to DMSO control; higher = less cytotoxic
Outline: (§1)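 Library compounds in DMSO were pin-dosed in an 11-point threefold series (47 μM to 0.79 nM) onto leukemia cells in 1536-well plates (5 μl). Plates held 500 cells/well of NOMO1 or SEM or 1000 cells/well of P12-Ichikawa, each adapted for at least four passages in each medium. Luminescence was read with CellTiter-Glo One after 48 h at 37°C. Viability means the per-plate percentage relative to DMSO wells, using cell-free wells as background.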

P12-Ichikawa [2] = assay: as above
Outline: as §1

SEM cells [3] = assay: as above
Outline: as §1

NOMO1 [4] = assay: AUC of viability dose-response curve (% viability x log10 dose units); higher = less sensitive
Outline: (§2)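 Library compounds in DMSO were applied for 48 h at 37°C at 11 threefold doses (47 μM to 0.79 nM) to medium-adapted leukemia cells in 1536-well plates holding 500 or 1000 cells/well. Luminescence from CellTiter-Glo One was normalised plate by plate against DMSO and cell-free wells. Area under the curve came from trapezoidal integration of a log-logistic fit, after scaling curves that rose above full viability and discarding those that failed quality control. The fit had four parameters and used log10 doses.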

P12-Ichikawa [5] = assay: as above
Outline: as §2

SEM cells [6] = assay: as above
Outline: as §2

CC(Oc1ccc(O)cc1)(P(=O)(O)O)P(=O)(O)O
cell viability [%]
Details	NOMO1 [1]	P12-Ichikawa [2]	SEM cells [3]
HPLM + 10% dialyzed FBS, 0.000781 µM	94.2	102	108
HPLM + 10% dialyzed FBS, 0.00234 µM	115	101	105
HPLM + 10% dialyzed FBS, 0.00702 µM	91.7	94.9	98.2
HPLM + 10% dialyzed FBS, 0.0211 µM	92.8	100	108
HPLM + 10% dialyzed FBS, 0.0632 µM	99.5	101	109
HPLM + 10% dialyzed FBS, 0.19 µM	93.5	99.2	104
HPLM + 10% dialyzed FBS, 0.569 µM	91.3	90.3	86.1
HPLM + 10% dialyzed FBS, 1.71 µM	85.8	94.9	101
HPLM + 10% dialyzed FBS, 5.12 µM	103	85.3	83.3
HPLM + 10% dialyzed FBS, 15.4 µM	42.6	67.8	65.5
HPLM + 10% dialyzed FBS, 46.1 µM	17.3	46.7	28.5
RPMI 5 mM glucose + 10% FBS, 0.000781 µM	91.6	92.5	107
RPMI 5 mM glucose + 10% FBS, 0.00234 µM	88	97.8	110
RPMI 5 mM glucose + 10% FBS, 0.00702 µM	87.4	95	103
RPMI 5 mM glucose + 10% FBS, 0.0211 µM	83.7	93.7	116
RPMI 5 mM glucose + 10% FBS, 0.0632 µM	94.8	100	109
RPMI 5 mM glucose + 10% FBS, 0.19 µM	101	98.2	96.2
RPMI 5 mM glucose + 10% FBS, 0.569 µM	90.4	82.2	92.3
RPMI 5 mM glucose + 10% FBS, 1.71 µM	85.7	87.2	105
RPMI 5 mM glucose + 10% FBS, 5.12 µM	78.5	81.5	83.1
RPMI 5 mM glucose + 10% FBS, 15.4 µM	73.7	42.8	48.4
RPMI 5 mM glucose + 10% FBS, 46.1 µM	14.6	33.6	25.1
RPMI 5 mM glucose + 10% dialyzed FBS, 0.000781 µM	94.8	97.1	98.8
RPMI 5 mM glucose + 10% dialyzed FBS, 0.00234 µM	100	97.5	85.7
RPMI 5 mM glucose + 10% dialyzed FBS, 0.00702 µM	87.9	88.6	103
RPMI 5 mM glucose + 10% dialyzed FBS, 0.0211 µM	93	98.4	97.9
RPMI 5 mM glucose + 10% dialyzed FBS, 0.0632 µM	84.9	107	113
RPMI 5 mM glucose + 10% dialyzed FBS, 0.19 µM	95.8	101	110
RPMI 5 mM glucose + 10% dialyzed FBS, 0.569 µM	92	90.7	90.1
RPMI 5 mM glucose + 10% dialyzed FBS, 1.71 µM	91	93.1	96.3
RPMI 5 mM glucose + 10% dialyzed FBS, 5.12 µM	83.9	87.6	74.9
RPMI 5 mM glucose + 10% dialyzed FBS, 15.4 µM	64.8	47.2	55.1
RPMI 5 mM glucose + 10% dialyzed FBS, 46.1 µM	14.4	34.6	28.6

AUC of viability dose-response curve
Details	NOMO1 [4]	P12-Ichikawa [5]	SEM cells [6]
HPLM + 10% dialyzed FBS	415	434	427
RPMI 5 mM glucose + 10% FBS	399	401	420
RPMI 5 mM glucose + 10% dialyzed FBS	405	418	421

COC1=CC=C2C(=CC=NC2=C1)OC3=CC=C(NC(=O)\C4=C(C)\N(CC(C)(C)O)N(C4=O)C5=CC=CC=C5)C=C3F
cell viability [%]
Details	NOMO1 [1]	P12-Ichikawa [2]	SEM cells [3]
HPLM + 10% dialyzed FBS, 0.000781 µM	124	121	108
HPLM + 10% dialyzed FBS, 0.00234 µM	116	123	99.9
HPLM + 10% dialyzed FBS, 0.00702 µM	104	122	129
HPLM + 10% dialyzed FBS, 0.0211 µM	115	123	108
HPLM + 10% dialyzed FBS, 0.0632 µM	132	123	114
HPLM + 10% dialyzed FBS, 0.19 µM	120	132	112
HPLM + 10% dialyzed FBS, 0.569 µM	108	135	112
HPLM + 10% dialyzed FBS, 1.71 µM	107	132	98.1
HPLM + 10% dialyzed FBS, 5.12 µM	125	129	60.7
HPLM + 10% dialyzed FBS, 15.4 µM	110	122	45.7
HPLM + 10% dialyzed FBS, 46.1 µM	105	118	39.1
RPMI 5 mM glucose + 10% FBS, 0.000781 µM	–	–	113
RPMI 5 mM glucose + 10% FBS, 0.00234 µM	–	–	108
RPMI 5 mM glucose + 10% FBS, 0.00702 µM	–	–	122
RPMI 5 mM glucose + 10% FBS, 0.0211 µM	–	–	115
RPMI 5 mM glucose + 10% FBS, 0.0632 µM	–	–	117
RPMI 5 mM glucose + 10% FBS, 0.19 µM	–	–	118
RPMI 5 mM glucose + 10% FBS, 0.569 µM	–	–	104
RPMI 5 mM glucose + 10% FBS, 1.71 µM	–	–	86.1
RPMI 5 mM glucose + 10% FBS, 5.12 µM	–	–	51.1
RPMI 5 mM glucose + 10% FBS, 15.4 µM	–	–	30.7
RPMI 5 mM glucose + 10% FBS, 46.1 µM	–	–	21.6
RPMI 5 mM glucose + 10% dialyzed FBS, 0.000781 µM	–	–	105
RPMI 5 mM glucose + 10% dialyzed FBS, 0.00234 µM	–	–	110
RPMI 5 mM glucose + 10% dialyzed FBS, 0.00702 µM	–	–	124
RPMI 5 mM glucose + 10% dialyzed FBS, 0.0211 µM	–	–	108
RPMI 5 mM glucose + 10% dialyzed FBS, 0.0632 µM	–	–	136
RPMI 5 mM glucose + 10% dialyzed FBS, 0.19 µM	–	–	130
RPMI 5 mM glucose + 10% dialyzed FBS, 0.569 µM	–	–	93.8
RPMI 5 mM glucose + 10% dialyzed FBS, 1.71 µM	–	–	69.7
RPMI 5 mM glucose + 10% dialyzed FBS, 5.12 µM	–	–	44.4
RPMI 5 mM glucose + 10% dialyzed FBS, 15.4 µM	–	–	35.8
RPMI 5 mM glucose + 10% dialyzed FBS, 46.1 µM	–	–	24.2

AUC of viability dose-response curve
Details	NOMO1 [4]	P12-Ichikawa [5]	SEM cells [6]
HPLM + 10% dialyzed FBS	459	472	404
RPMI 5 mM glucose + 10% FBS	468	468	379
RPMI 5 mM glucose + 10% dialyzed FBS	467	469	365

COc1cc2nc(-c3ccc(N4CCN(C)CC4)cc3)nc(NCCN3CCOCC3)c2cc1OC
cell viability [%]
Details	NOMO1 [1]	P12-Ichikawa [2]	SEM cells [3]
HPLM + 10% dialyzed FBS, 0.000781 µM	115	111	104
HPLM + 10% dialyzed FBS, 0.00234 µM	112	121	111
HPLM + 10% dialyzed FBS, 0.00702 µM	110	109	95.7
HPLM + 10% dialyzed FBS, 0.0211 µM	125	115	102
HPLM + 10% dialyzed FBS, 0.0632 µM	113	109	112
HPLM + 10% dialyzed FBS, 0.19 µM	97.9	110	44.1
HPLM + 10% dialyzed FBS, 0.569 µM	48.8	81.7	11.3
HPLM + 10% dialyzed FBS, 1.71 µM	35	57.9	8.34
HPLM + 10% dialyzed FBS, 5.12 µM	22.6	50	4.72
HPLM + 10% dialyzed FBS, 15.4 µM	18.8	23.2	4.43
HPLM + 10% dialyzed FBS, 46.1 µM	1.8	3.38	2.62
RPMI 5 mM glucose + 10% FBS, 0.000781 µM	102	113	108
RPMI 5 mM glucose + 10% FBS, 0.00234 µM	103	120	115
RPMI 5 mM glucose + 10% FBS, 0.00702 µM	99	108	91
RPMI 5 mM glucose + 10% FBS, 0.0211 µM	94.5	113	111
RPMI 5 mM glucose + 10% FBS, 0.0632 µM	98.7	116	107
RPMI 5 mM glucose + 10% FBS, 0.19 µM	100	111	107
RPMI 5 mM glucose + 10% FBS, 0.569 µM	84	104	41.1
RPMI 5 mM glucose + 10% FBS, 1.71 µM	47	67	14.1
RPMI 5 mM glucose + 10% FBS, 5.12 µM	18.1	36.7	7.04
RPMI 5 mM glucose + 10% FBS, 15.4 µM	9.07	5.75	3.02
RPMI 5 mM glucose + 10% FBS, 46.1 µM	2.08	2.84	2.56
RPMI 5 mM glucose + 10% dialyzed FBS, 0.000781 µM	114	113	114
RPMI 5 mM glucose + 10% dialyzed FBS, 0.00234 µM	111	108	106
RPMI 5 mM glucose + 10% dialyzed FBS, 0.00702 µM	103	118	107
RPMI 5 mM glucose + 10% dialyzed FBS, 0.0211 µM	107	103	102
RPMI 5 mM glucose + 10% dialyzed FBS, 0.0632 µM	111	106	111
RPMI 5 mM glucose + 10% dialyzed FBS, 0.19 µM	95	106	81.7
RPMI 5 mM glucose + 10% dialyzed FBS, 0.569 µM	63.7	96.3	29.3
RPMI 5 mM glucose + 10% dialyzed FBS, 1.71 µM	28.3	65.8	10.7
RPMI 5 mM glucose + 10% dialyzed FBS, 5.12 µM	11.1	22.5	5.08
RPMI 5 mM glucose + 10% dialyzed FBS, 15.4 µM	7.69	5.42	3.57
RPMI 5 mM glucose + 10% dialyzed FBS, 46.1 µM	1.71	2.71	2.59

AUC of viability dose-response curve
Details	NOMO1 [4]	P12-Ichikawa [5]	SEM cells [6]
HPLM + 10% dialyzed FBS	300	340	248
RPMI 5 mM glucose + 10% FBS	336	350	290
RPMI 5 mM glucose + 10% dialyzed FBS	302	345	271
